In one data set the test system is human tumor xenografts. Conditions: nude mice; cited from earlier work.
A further data set can be described thus: Solubility of CCI-779. It is filed as physicochemical. How it is done:
A primary obstacle towards the formulation of CCI-779 as a parenteral dosage form is the poor aqueous solubility, which is less than 1 μg/ml. The drug is a non-electrolyte and approaches such as pH adjustment and salt formation are not useful for improving the aqueous solubility. […] These include ethanol, propylene glycol, polyethylene glycol and dimethylacetamide. Two problems or limitations exist with respect to the formulation of CCI-779 in these organic solvents. First, chemical instability has been noted in virtually all solvents. The instability can be due to oxidative degradation of CCI-779 or to cleavage of a lactone bond, resulting in the formation of the ring opened seco-CCI-779. Second, formulations of CCI-779 in organic solvents will precipitate upon dilution with aqueous infusion solutions, such as 0.9% Sodium Chloride Injection or 5% Dextrose Injections, or with blood. This is a primary limitation to the use of water miscible organic solvents, also referred to as cosolvents, when used as vehicles for highly water-insoluble compounds.

Data set [1] in a line: Stability of CCI-779 in solution with chelating agent. It counts as physicochemical. The conditions noted are these: citric acid at less than 0.01% w/v. An excerpt:
In some embodiments, components with chelating activity are included in the formulations of the invention as the sole “antioxidant component”. Typically, such metal-binding components, when acting as chelating agents are used in the lower end of the range of concentrations for the antioxidant component provided herein. […] Additionally, such chelating agents may be used in combination with other antioxidants as part of the antioxidant component of the invention. For example, an acceptable formulation may contain both citric acid and d,l-α-tocopherol. Optimal concentrations for the selected antioxidant(s) can be readily determined by one of skill in the art, based upon the information provided herein.

The test system of data set [2] is histologically diverse tumor cells. The conditions noted are these: cited from earlier work.

As to `CO[C@H]1C[C@@H]2CC[C@@H](C)[C@@](O)(O2)C(=O)C(=O)N2CCCC[C@H]2C(=O)O[C@H]([C@H](C)C[C@@H]2CC[C@@H](OC(=O)C(C)(CO)CO)[C@H](OC)C2)CC(=O)[C@H](C)/C=C(\C)[C@@H](O)[C@@H](OC)C(=O)[C@H](C)C[C@H](C)/C=C/C=C/C=C/1C` [CCI-779, rapamycin 42-ester with 3-hydroxy-2-(hydroxymethyl)-2-methylpropionic acid], in the data set with human tumor xenografts, the “activity against human tumor xenografts” value is given as “has activity”. Further, in the data set “Solubility of CCI-779” (ethanol, propylene glycol, polyethylene glycol, dimethylacetamide), the “solubility in water-miscible organic solvents” value is recorded as “soluble”. Further, the “solubility in pharmaceutically acceptable vegetable oils” value in “Solubility of CCI-779” (vegetable oils) is “poor solubility”. Moreover, in “Solubility of CCI-779” (water, read-out: aqueous solubility), the solubility was below 1 µg/mL. In addition, the “effect of citric acid on stability of CCI-779” value in data set [1] is on record as “enhanced the stability”. In addition, the “growth of tumor cells in vitro” value in data set [2] is recorded as “inhibit the growth”.

The record behind these values is patent US8026276B2, “Parenteral CCI-779 formulations containing cosolvents, an antioxidant, and a surfactant” (Wyeth LLC, priority 2002, dated 2011).
